These results are taken from ChEMBL document CHEMBL1139585, “A 3D-QSAR model for CYP2D6 inhibition in the aryloxypropanolamine series” (Bioorg Med Chem Lett, 2005).

The term IC50 denotes the concentration needed to halve the response being measured.

The experiment has as its target Cytochrome P450 2D6 (Homo sapiens, UniProt P10635). Kind of experiment: Inhibitory activity against recombinant human Cytochrome P450 2D6 (CYP2D6) after incubated for 45 minutes.

Chain of Cytochrome P450 2D6 (P10635 whole entry): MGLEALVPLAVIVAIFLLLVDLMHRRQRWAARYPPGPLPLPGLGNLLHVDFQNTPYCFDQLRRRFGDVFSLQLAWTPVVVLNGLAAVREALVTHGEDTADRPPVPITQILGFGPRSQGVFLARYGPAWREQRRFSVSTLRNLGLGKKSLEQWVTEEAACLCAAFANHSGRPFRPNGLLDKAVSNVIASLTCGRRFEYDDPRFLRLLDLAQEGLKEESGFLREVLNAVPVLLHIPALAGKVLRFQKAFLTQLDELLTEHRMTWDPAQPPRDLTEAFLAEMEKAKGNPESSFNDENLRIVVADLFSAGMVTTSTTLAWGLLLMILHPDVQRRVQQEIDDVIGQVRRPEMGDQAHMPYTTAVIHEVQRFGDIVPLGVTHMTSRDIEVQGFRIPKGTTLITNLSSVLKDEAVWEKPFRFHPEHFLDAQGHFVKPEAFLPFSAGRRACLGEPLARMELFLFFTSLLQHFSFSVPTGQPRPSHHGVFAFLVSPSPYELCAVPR

Turning to `CCc1ccccc1OCC(O)CNC(C)(C)Cc1cc2ccccc2[nH]1` (stereo unspecified), the IC50 was determined as 120 nM. On to `COCCc1ccc(OCC(O)CNC(C)(C)CSc2ccccc2C)cc1` (stereo unspecified), for which the IC50 amounted to 280 nM. In the case of `COc1ccc2c(CC(C)(C)NCC(O)COc3ccccc3C#N)c[nH]c2c1` (stereo unspecified) it was 420 nM; in that of `CC(C)NC[C@@H](O)COc1ccc(-c2ccccc2)c2ccccc12`, 21000 nM.

In the case of `CC(C)NCC(O)COc1ccccc1` (stereo unspecified), the IC50 was found to be 18000 nM. As for `C=CCOc1ccc(OCC(O)CNC(C)C)cc1` (stereo unspecified), the figure is 21000 nM; as for `CC(C)N[C@@H](C)C(O)COc1cccc2ccccc12` (stereo partly specified), 3800 nM; as for `Cc1ccccc1OCC(O)CNC(C)(C)Cc1cc2ccccc2n1C` (stereo unspecified), 90 nM. On to `CC(C)(Cc1c[nH]c2ccccc12)NCC(O)COc1c(C#N)ccc2ccccc12` (stereo unspecified), for which the IC50 was 50 nM. For the molecule `CC(C)(Cc1csc2ccccc12)NCC(O)COc1ccccc1C#N` (stereo unspecified), the IC50 worked out at 50 nM.

On to `COc1ccc2c(OCC(O)CNC(C)C)cccc2c1` (stereo unspecified), for which the IC50 was found to be 8400 nM. In the case of `COc1ccc2[nH]cc(CC(C)(C)NCC(O)COc3ccccc3C#N)c2c1` (stereo unspecified) it was 50 nM. Consider `CC(C)(Cc1c[nH]c2ccc(O)cc12)NCC(O)COc1ccccc1C#N` (stereo unspecified), for which the IC50 was found to be 80 nM. In the case of `CCc1cccc2cc(CC(O)CNC(C)(C)C)oc12` (stereo unspecified) it was 4800 nM; in that of `CC(C)NCC(O)COc1ccc(CCOCC2CC2)cc1` (stereo unspecified) [BETAXOLOL], 66000 nM. Consider `CC(C)(C)NCC(O)COc1ccccc1` (stereo unspecified), for which the IC50 was found to be 28000 nM.
